From patent US20210078917A1, “FUNGICIDAL FERTILIZER COMPOSITION COMPRISING POTASSIUM PHOSPHITE AND GAMMA-POLY-GLUTAMIC ACID” (JIANGSU HUIFENG BIO AGRICULTURE CO., LTD., priority 2018, published 2021)

What was measured:
Chinese wolfberry = test: Yield increase and quality test of Chinese wolfberry; format: in vivo, Chinese wolfberry "Ningqi No. 7"
Protocol: The test was carried out in a Chinese wolfberry planting test plot in Koluke Town, Delingha City, Qinghai Province. Chinese wolfberry plants were all three-year-old seedlings of variety “Ningqi No. 7” at a density of 270 plants/667 m^2. This experiment was designed such that different plots were arranged in order. […]. Fertilization method: It was applied together with other base fertilizers, by laying the fertilizer at the bottom of the planting pit, where the depth of the trench was 70 cm, the diameter of the pit was 80 cm, and the soil was mixed in and applied at the bottom when applying fertilizer. The yield, quality and control effect on disease on fresh Chinese wolfberry fruit were determined.

Disease (blight) = test: Disease control test of pepper, blight; format: in vivo; conditions: 40 g active ingredient per mu
Protocol: This fertilizer was applied on the basis of conventional fertilization in each treatment area. Fertilization method: The fertilizer was applied by spraying during the seedling stage of pepper. The yield, quality and control effect on disease on pepper were determined.

root rot of potatoes = test: Disease control test of potatoes (field), root rot; format: in vivo, potato
Protocol: (§1) (1) Yield increase and disease control test of potatoes with fungicidal fertilizer composition of the present invention. This test was conducted in 2017 in Anding District, Dingxi City, Gansu Province. This area is a typical semi-arid rain-fed agricultural area. The soil type is loessial soil, with deep soil layers and uniform soil fertility. The previous crop is rape. The fertilizer of the present invention was totally applied as a base fertilizer at a time. […] Ridging after flat planting in wide and narrow rows was adopted. The wide row spacing was 60 cm, the narrow row spacing was 30 cm, the plant spacing was 30 cm, the sowing depth was 15 cm, and the plant density was 58,000 plants·hm^−2. Other field management was the same as that in large area of field. The number of large- and medium-sized potatoes ([…]) per plant was randomly determined, and the relative increase rate of large- and medium-sized potatoes was determined. The yield per mu and the relative increase rate of yield were determined. The crude starch content and increase rate of crude starch content were determined. The control effect on root rot of potatoes was also determined.

soybean = test: Yield increase test of soybean; format: in vivo; conditions: for Yield (667 M^2): per 667 M^2
Protocol: (§2) Fertilization method: The fertilizer was co-applied with other fertilizers. The yield, quality and control effect on disease on soybean were determined.

[1] = system: root rot, a soil-borne disease of soybeans; test: Disease control test of soybean, root rot; format: in vivo
Protocol: as §2

Disease (black fruit) = test: Disease control test of Chinese wolfberry, black fruit; format: in vivo, Chinese wolfberry "Ningqi No. 7"
Protocol: The test was carried out in a Chinese wolfberry planting test plot in Koluke Town, Delingha City, Qinghai Province. Chinese wolfberry plants were all three-year-old seedlings of variety “Ningqi No. 7” at a density of 270 plants/667 m^2. This experiment was designed such that different plots were arranged in order. […] Fertilization method: It was applied together with other base fertilizers, by laying the fertilizer at the bottom of the planting pit, where the depth of the trench was 70 cm, the diameter of the pit was 80 cm, and the soil was mixed in and applied at the bottom when applying fertilizer. The yield, quality and control effect on disease on fresh Chinese wolfberry fruit were determined.

potatoes = test: Yield increase test of potatoes (field); format: in vivo, potato
Protocol: as §1

stem rot of peanut = test: Disease control test of peanut, stem rot; format: in vivo
Protocol: […]. Fertilization method: The fertilizer was applied three times by spraying during the flowering and fruiting period. The yield, quality and control effect on disease on peanut were determined.

Disease (rot) = test: Disease control test of tomato, rot; format: in vivo; conditions: 60 g active ingredient per mu
Protocol: This fertilizer was applied on the basis of conventional fertilization in each treatment area. Fertilization method: The fertilizer was applied by spraying during the seedling stage of tomato. The yield, quality and control effect on disease on tomato were determined.

[2] = amount 50 g active ingredient/mu
[3] = amount 100 g active ingredient/mu
[4] = amount 400 g active ingredient/mu

γ-poly-glutamic acid
Quality: Polysaccharide (Chinese wolfberry; 50 g/mu): 8.79%
Quality: Total amino acid content (Chinese wolfberry; 50 g/mu): 7.53%
Yield of fresh Chinese wolfberry fruit: Weight per 100 fruits (Chinese wolfberry; 50 g/mu): 117.5 g
Yield of fresh Chinese wolfberry fruit: Yield (Chinese wolfberry; 50 g/mu): 2524.5 kg/mu
Quality: Polysaccharide (Chinese wolfberry; 100 g/mu): 9.54%
Quality: Total amino acid content (Chinese wolfberry; 100 g/mu): 7.68%
Yield of fresh Chinese wolfberry fruit: Weight per 100 fruits (Chinese wolfberry; 100 g/mu): 124.7 g
Yield of fresh Chinese wolfberry fruit: Yield (Chinese wolfberry; 100 g/mu): 2658.6 kg/mu
Disease (blight): Control effect (Disease (blight); 10 days after application): 26.27%
Disease (blight): Control effect (Disease (blight); 42 days after application): 10.26%
Control effect (root rot of potatoes; amount 50 g active ingredient/mu, 10 days after application): 9.87%
Control effect (root rot of potatoes; amount 50 g active ingredient/mu, 30 days after application): 4.34%
Control effect (root rot of potatoes; amount 100 g active ingredient/mu, 10 days after application): 17.34%
Control effect (root rot of potatoes; amount 100 g active ingredient/mu, 30 days after application): 14.47%
Control effect (root rot of potatoes; amount 400 g active ingredient/mu, 10 days after application): 32.51%
Control effect (root rot of potatoes; amount 400 g active ingredient/mu, 30 days after application): 25.37%
Branches (soybean; 15 g/mu): 17.5 count
Increase rate (branches) (soybean; 15 g/mu): 1.2%
Increase rate (weight per 100 grains) (soybean; 15 g/mu): 2.8%
Increase rate (yield) (soybean; 15 g/mu): 2.9%
Weight per 100 grains (soybean; 15 g/mu): 25.43 g
Yield (667 M^2) (soybean; 15 g/mu): 181.7
Branches (soybean; 50 g/mu): 17.8 count
Increase rate (branches) (soybean; 50 g/mu): 2.7%
Increase rate (weight per 100 grains) (soybean; 50 g/mu): 3.5%
Increase rate (yield) (soybean; 50 g/mu): 4.5%
Weight per 100 grains (soybean; 50 g/mu): 25.61 g
Yield (667 M^2) (soybean; 50 g/mu): 184.5
Branches (soybean; 100 g/mu): 18.0 count
Increase rate (branches) (soybean; 100 g/mu): 4.1%
Increase rate (weight per 100 grains) (soybean; 100 g/mu): 4.1%
Increase rate (yield) (soybean; 100 g/mu): 5.7%
Weight per 100 grains (soybean; 100 g/mu): 25.75 g
Yield (667 M^2) (soybean; 100 g/mu): 186.7
Branches (soybean; 300 g/mu): 18.1 count
Increase rate (branches) (soybean; 300 g/mu): 4.6%
Increase rate (weight per 100 grains) (soybean; 300 g/mu): 5.3%
Increase rate (yield) (soybean; 300 g/mu): 7.3%
Weight per 100 grains (soybean; 300 g/mu): 26.05 g
Yield (667 M^2) (soybean; 300 g/mu): 189.5
Branches (soybean; 600 g/mu): 18.3 count
Increase rate (branches) (soybean; 600 g/mu): 5.7%
Increase rate (weight per 100 grains) (soybean; 600 g/mu): 6.8%
Increase rate (yield) (soybean; 600 g/mu): 10.5%
Weight per 100 grains (soybean; 600 g/mu): 26.42 g
Yield (667 M^2) (soybean; 600 g/mu): 195.1
Control effect ([1]; 15 g/mu, 12 days after application): 9.70%
Control effect ([1]; 15 g/mu, 35 days after application): 4.22%
Control effect ([1]; 50 g/mu, 12 days after application): 14.20%
Control effect ([1]; 50 g/mu, 35 days after application): 7.86%
Control effect ([1]; 100 g/mu, 12 days after application): 20.13%
Control effect ([1]; 100 g/mu, 35 days after application): 10.67%
Control effect ([1]; 300 g/mu, 12 days after application): 22.71%
Control effect ([1]; 300 g/mu, 35 days after application): 15.76%
Control effect ([1]; 600 g/mu, 12 days after application): 27.52%
Control effect ([1]; 600 g/mu, 35 days after application): 18.89%
Disease (black fruit): Control effect (Disease (black fruit); 50 g/mu, 10 days after application): 17.56%
Disease (black fruit): Control effect (Disease (black fruit); 50 g/mu, 30 days after application): 10.99%
Disease (black fruit): Control effect (Disease (black fruit); 100 g/mu, 10 days after application): 29.17%
Disease (black fruit): Control effect (Disease (black fruit); 100 g/mu, 30 days after application): 21.35%
Crude starch content (potatoes; [2]): 16.1%
Fresh weight of large- and medium-sized potatoes (potatoes; [2]): 481.3 g/plant
Increase rate of crude starch content (potatoes; [2]): 1.9%
Increase rate of large- and medium-sized potatoes (potatoes; [2]): 6.5%
Increase rate of yield (potatoes; [2]): 4.4%
Yield (potatoes; [2]): 1343 kg/mu
Crude starch content (potatoes; [3]): 16.4%
Fresh weight of large- and medium-sized potatoes (potatoes; [3]): 492.6 g/plant
Increase rate of crude starch content (potatoes; [3]): 3.8%
Increase rate of large- and medium-sized potatoes (potatoes; [3]): 9.0%
Increase rate of yield (potatoes; [3]): 7.5%
Yield (potatoes; [3]): 1383 kg/mu
Crude starch content (potatoes; [4]): 17.1%
Fresh weight of large- and medium-sized potatoes (potatoes; [4]): 499.3 g/plant
Increase rate of crude starch content (potatoes; [4]): 8.2%
Increase rate of large- and medium-sized potatoes (potatoes; [4]): 10.5%
Increase rate of yield (potatoes; [4]): 10.6%
Yield (potatoes; [4]): 1422 kg/mu
Disease (Stem rot): Control effect (stem rot of peanut; 30 g/mu, 10 days after application): 20.41%
Disease (Stem rot): Control effect (stem rot of peanut; 30 g/mu, 30 days after application): 6.21%
Disease (Stem rot): Control effect (stem rot of peanut; 60 g/mu, 10 days after application): 31.29%
Disease (Stem rot): Control effect (stem rot of peanut; 60 g/mu, 30 days after application): 11.58%
Disease (rot): Control effect (Disease (rot); 12 days after application): 21.35%
Disease (rot): Control effect (Disease (rot); 45 days after application): 7.26%
